Source: patent publication US11014911B2, “CDK2 inhibitors” (Pfizer Inc., priority 2019, dated 2021)

Columns and labels:
[1] = target: GSK3β (H350L) (Homo sapiens (Human), UniProt P49841); settings: read-out: GSK3β Ki
Description: The assay was initiated with the addition of ATP, following 15 minutes pre-incubation of enzyme and inhibitor at room temperature in the reaction mixture. The reaction was stopped after 30 minutes at room temperature by the addition of 50 μL of 80 mM EDTA.

[2] = target: CDK2/Cyclin E1 full length (Homo sapiens (Human), UniProt P24941); assay: CDK2/Cyclin E1 full length mobility shift assay; format: biochemical

Chain of GSK3β (H350L) (P49841 whole entry, stated change not applied): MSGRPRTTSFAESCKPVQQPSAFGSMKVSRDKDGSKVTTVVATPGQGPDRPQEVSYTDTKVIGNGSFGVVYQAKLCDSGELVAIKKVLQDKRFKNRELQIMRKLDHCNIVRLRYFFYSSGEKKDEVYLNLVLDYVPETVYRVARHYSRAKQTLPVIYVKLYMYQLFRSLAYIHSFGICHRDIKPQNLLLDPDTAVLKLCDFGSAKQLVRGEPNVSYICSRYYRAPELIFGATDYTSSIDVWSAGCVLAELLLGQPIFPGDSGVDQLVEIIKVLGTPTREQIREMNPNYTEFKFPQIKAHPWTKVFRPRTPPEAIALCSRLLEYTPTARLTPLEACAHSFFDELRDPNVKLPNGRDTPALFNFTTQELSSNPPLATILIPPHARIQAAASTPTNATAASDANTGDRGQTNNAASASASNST

| Ki [1] [nM] | Ki [2] [nM] | SMILES |
| --- | --- | --- |
| 17.8 | 0.22 | Cc1cnc(CC(=O)Nc2cc([C@H]3CC[C@@H](OC(=O)NC4(C)CCC4)C3)[nH]n2)o1 [Example 118] |
| 11.5 | 0.63 | Cc1cnc(CC(=O)Nc2cc([C@H]3CC[C@@H](OC(=O)N4[C@@H](C)C[C@@H]4C)C3)[nH]n2)o1 [Example 606, (1R,3S)-3-(3-{[(5-methyl-1,3-oxazol-2-yl)acetyl]amino}-1H-pyrazol-5-yl)cyclopentyl (2S,4S)-2,4-dimethylazetidine-1-carboxylate] |
| 44.7 | 0.72 | CCCNC(=O)O[C@@H]1CC[C@H](c2cc(NC(=O)c3ccnn3C)n[nH]2)C1 [Example 164, (1R,3S)-3-(3-{[(1-methyl-1H-pyrazol-5-yl)carbonyl]amino}-1H-pyrazol-5-yl)cyclopentyl propylcarbamate] |
| 25.8 | 0.36 | CCCNC(=O)O[C@H]1CC[C@@H](c2cc(NC(=O)Cc3ccno3)n[nH]2)C1 [Example 168, (1S,3R)-3-{3-[(1,2-oxazol-5-ylacetyl)amino]-1H-pyrazol-5-yl}cyclopentyl propylcarbamate] |
| 34.4 | 0.05 | CC[C@H](C)NC(=O)O[C@@H]1CC[C@H](c2cc(NC(=O)c3ccnn3C)n[nH]2)C1 [Example 42] |
| 3.7 | 0.57 | CCN(C)C(=O)O[C@@H]1CC[C@H](c2cc(NC(=O)Cc3ccc(OC)nc3)n[nH]2)C1 [Example 244, (1R,3S)-3-(3-{[(6-methoxypyridin-3-yl)acetyl]amino}-1H-pyrazol-5-yl)cyclopentyl ethyl(methyl)carbamate] |
| 16.1 | 0.73 | CCN(C)C(=O)O[C@@H]1CC[C@H](c2cc(NC(=O)Cc3ccc(OC)cc3)n[nH]2)C1 [Example 240, (1R,3S)-3-(3-{[(4-methoxyphenyl)acetyl]amino}-1H-pyrazol-5-yl)cyclopentyl ethyl(methyl)carbamate] |
| 29.6 | 1.63 | CCCNC(=O)O[C@@H]1CC[C@H](c2cc(NC(=O)Cc3ccno3)n[nH]2)C1 [Example 169, (1R,3S)-3-{3-[(1,2-oxazol-5-ylacetyl)amino]-1H-pyrazol-5-yl}cyclopentyl propylcarbamate] |
| 2.45 | 0.11 | CCCNC(=O)O[C@H]1CC[C@@H](c2cc(NC(=O)Cc3ccc4[nH]c(C)nc4c3)n[nH]2)C1 [Example 23] |
| 13.5 | 0.54 | CCCNC(=O)O[C@@H]1CC[C@H](c2cc(NC(=O)Cc3cncs3)n[nH]2)C1 [Example 179, (1R,3S)-3-{3-[(1,3-thiazol-5-ylacetyl)amino]-1H-pyrazol-5-yl}cyclopentyl propylcarbamate] |
| 12.7 | 0.36 | Cc1cc(CC(=O)Nc2cc([C@H]3CC[C@@H](OC(=O)N4CCC[C@@H]4C)C3)[nH]n2)on1 [Example 632, (1R,3S)-3-(3-{[(3-methyl-1,2-oxazol-5-yl)acetyl]amino}-1H-pyrazol-5-yl)cyclopentyl (2S)-2-methylpyrrolidine-1-carboxylate] |
| 2.28 | 1.08 | COc1ccc(CC(=O)Nc2cc([C@@H]3CC[C@H](OC(=O)N[C@H]4CC[C@](C)(O)CC4)C3)[nH]n2)cn1 [Example 571, (1S,3R)-3-(3-{[(6-methoxypyridin-3-yl)acetyl]amino}-1H-pyrazol-5-yl)cyclopentyl (trans-4-hydroxy-4-methylcyclohexyl)carbamate] |
| 33.9 | 1.4 | CCCNC(=O)O[C@@H]1CC[C@H](c2cc(NC(=O)Cc3cnco3)n[nH]2)C1 [Example 167, (1R,3S)-3-{3-[(1,3-oxazol-5-ylacetyl)amino]-1H-pyrazol-5-yl}cyclopentyl propylcarbamate] |
| 20.8 | 0.92 | C[C@H]1CCCN1C(=O)O[C@@H]1CC[C@H](c2cc(NC(=O)Cc3ccon3)n[nH]2)C1 [Example 628, (1R,3S)-3-{3-[(1,2-oxazol-3-ylacetyl)amino]-1H-pyrazol-5-yl}cyclopentyl (2S)-2-methylpyrrolidine-1-carboxylate] |
| 46.1 | 2.5 | CCCNC(=O)O[C@@H]1CC[C@H](c2cc(NC(=O)Cc3cnc(C)o3)n[nH]2)C1 [Example 176, (1R,3S)-3-(3-{[(2-methyl-1,3-oxazol-5-yl)acetyl]amino}-1H-pyrazol-5-yl)cyclopentyl propylcarbamate] |
| 14.1 | 0.83 | C[C@]1(O)CC[C@H](NC(=O)O[C@@H]2CC[C@H](c3cc(NC(=O)Cc4cc(F)cc(F)c4)n[nH]3)C2)CC1 [Example 573, (1R,3S)-3-(3-{[(3,5-difluorophenyl)acetyl]amino}-1H-pyrazol-5-yl)cyclopentyl (trans-4-hydroxy-4-methylcyclohexyl)carbamate] |
| 7.23 | 0.37 | C[C@@H]1COCCN1C(=O)O[C@@H]1CC[C@H](c2cc(NC(=O)Cc3cc(F)cc(F)c3)n[nH]2)C1 [Example 645, (1R,3S)-3-(3-{[(3,5-difluorophenyl)acetyl]amino}-1H-pyrazol-5-yl)cyclopentyl (3R)-3-methylmorpholine-4-carboxylate] |
| 5.57 | 0.24 | Cn1cc(CC(=O)Nc2cc([C@H]3CC[C@@H](OC(=O)N4CCC4(C)C)C3)[nH]n2)cn1 [Example 148] |
| 3.47 | 0.07 | COc1cc(CC(=O)Nc2cc([C@H]3CC[C@@H](OC(=O)N4CCC4(C)C)C3)[nH]n2)ccn1 [Example 146] |
| 31.2 | 0.33 | CC[C@H](C)NC(=O)O[C@@H]1CC[C@H](c2cc(NC(=O)Cc3cnc(C)cn3)n[nH]2)C1 [Example 34] |
| 11.7 | 0.19 | CC1(C)CCCN1C(=O)O[C@@H]1CC[C@H](c2cc(NC(=O)Cc3ccon3)n[nH]2)C1 [Example 135] |
| 21.4 | 1.1 | CCCNC(=O)O[C@@H]1CC[C@H](c2cc(NC(=O)Cc3cc(C)no3)n[nH]2)C1 [Example 178, (1R,3S)-3-(3-{[(3-methyl-1,2-oxazol-5-yl)acetyl]amino}-1H-pyrazol-5-yl)cyclopentyl propylcarbamate] |
| > 95.3 | 0.85 | Cn1nncc1C(=O)Nc1cc([C@H]2CC[C@@H](OC(=O)NC(C)(C)C)C2)[nH]n1 [Example 293, (1R,3S)-3-(3-{[(1-methyl-1H-1,2,3-triazol-5-yl)carbonyl]amino}-1H-pyrazol-5-yl)cyclopentyl tert-butylcarbamate] |
| 47.8 | 0.21 | CC[C@H](C)NC(=O)O[C@@H]1CC[C@H](c2cc(NC(=O)Cc3ccc(OC)cc3S(C)(=O)=O)n[nH]2)C1 [Example 44] |

| SMILES | Ki [1] [nM] | Ki [2] [nM] |
| --- | --- | --- |
| Cc1cnc(CC(=O)Nc2cc([C@H]3CC[C@@H](OC(=O)NC4(C)CC4)C3)[nH]n2)o1 [Example 5, (1R,3S)-3-(3-{[(5-methyl-1,3-oxazol-2-yl)acetyl]amino}-1H-pyrazol-5-yl)cyclopentyl (1-methylcyclopropyl)carbamate] | 39.4 | 0.4 |
| CCCNC(=O)O[C@@H]1CC[C@H](c2cc(NC(=O)Cc3cc(OC)ncc3S(C)(=O)=O)n[nH]2)C1 [Example 214, (1R,3S)-3-[3-({[2-methoxy-5-(methylsulfonyl)pyridin-4-yl]acetyl}amino)-1H-pyrazol-5-yl]cyclopentyl propylcarbamate] | 131 | 0.37 |
| CC[C@H](C)NC(=O)O[C@@H]1CC[C@H](c2cc(NC(=O)Cc3ccc(C(=O)N(C)C)cc3)n[nH]2)C1 [Example 364, (1R,3S)-3-[3-({[4-(dimethylcarbamoyl)-phenyl]acetyl}amino)-1H-pyrazol-5-yl]cyclopentyl (2S)-butan-2-ylcarbamate] | 59.9 | 0.82 |
| CC(C)(C)NC(=O)O[C@@H]1CC[C@H](c2cc(NC(=O)Cc3ccon3)n[nH]2)C1 [Example 17, (1R,3S)-3-{3-[(1,2-oxazol-3-ylacetyl)amino]-1H-pyrazol-5-yl}cyclopentyl tert-butylcarbamate] | 65.8 | 0.33 |
| COc1ccc(CC(=O)Nc2cc([C@@H]3CC[C@H](OC(=O)N[C@H]4CC[C@H](O)CC4)C3)[nH]n2)nc1 [Example 557, (1S,3R)-3-(3-{[(5-methoxypyridin-2-yl)acetyl]amino}-1H-pyrazol-5-yl)cyclopentyl (trans-4-hydroxycyclohexyl)carbamate] | 2.6 | 1.01 |
| Cc1ccc(CC(=O)Nc2cc([C@H]3CC[C@@H](OC(=O)NC4(C)CC4)C3)[nH]n2)nc1 [Example 424, (1R,3S)-3-(3-{[(5-methylpyridin-2-yl)acetyl]amino}-1H-pyrazol-5-yl)cyclopentyl (1-methylcyclopropyl)carbamate] | 14.4 | 0.51 |
| CC[C@H](C)NC(=O)O[C@@H]1CC[C@H](c2cc(NC(=O)Cc3ncc(C)o3)n[nH]2)C1 [Example 333, (1R,3S)-3-(3-{[(5-methyl-1,3-oxazol-2-yl)acetyl]amino}-1H-pyrazol-5-yl)cyclopentyl (2S)-butan-2-ylcarbamate] | 63.2 | 0.41 |
| CCCNC(=O)O[C@H]1CC[C@@H](c2cc(NC(=O)Cc3ccccc3S(C)(=O)=O)n[nH]2)C1 [Example 203, (1S,3R)-3-[3-({[2-(methylsulfonyl)phenyl]-acetyl}amino)-1H-pyrazol-5-yl]cyclopentyl propylcarbamate] | 34.2 | 0.29 |
| CC[C@H](C)NC(=O)O[C@@H]1CC[C@H](c2cc(NC(=O)Cc3cc(OC)ncc3S(C)(=O)=O)n[nH]2)C1 [Example 375, (1R,3S)-3-[3-({[2-methoxy-5-(methylsulfonyl)pyridin-4-yl]acetyl}amino)-1H-pyrazol-5-yl]cyclopentyl (2S)-butan-2-ylcarbamate] | 116 | 0.31 |
| Cc1ccc(CC(=O)Nc2cc([C@@H]3CC[C@H](OC(=O)N[C@H]4CC[C@H](O)CC4)C3)[nH]n2)nc1 [Example 549, (1S,3R)-3-(3-{[(5-methylpyridin-2-yl)acetyl]amino}-1H-pyrazol-5-yl)cyclopentyl (trans-4-hydroxycyclohexyl)carbamate] | 3.24 | 0.9 |
| COc1cc(CC(=O)Nc2cc([C@H]3CC[C@@H](OC(=O)N[C@@H](C)[C@@H](C)F)C3)[nH]n2)ccn1 [Example 101] | 20.9 | 0.28 |
